The test system of one experiment is MCF-7 cells. The experiment in a line: In vivo tumor initiation of pre-treated MCF-7 cells (limiting dilution, ELDA). Also noted: species or system mice. As to conditions: for in vivo tumor initiation capacity: 6 days in vitro pre-treatment, 100,000 MCF-7 cells, Nude mice, day 90; for enrichment in tumor-initiating cell frequency (ELDA): MCF-7 pre-treated six days, limiting dilution in NSG mice, day 60. How it is done: To determine tumor initiation capacity of MCF-7 cells or metastatic (BB3RC31) PDX cells treated in vitro or in vivo, respectively, Nude or NSG mice were injected subcutaneously with cells in mammosphere media mixed 1:1 with Matrigel. 8 μg/ml of 17-beta estradiol was administered in drinking water or 90-day slow release estrogen pellets were implanted sub-cutaneously into mice two days before cell injection (0.72 mg, Innovative Research of America). […] Positive tumor growth was assessed at day 60 or 90 after cell injection by determining the mice bearing a tumor greater than 100 mm^3 and is represented as mice positive for growth/mice tested (n=4 per condition in all experiments). p values were calculated with Chi-squared test.

For experiment [1], the system named is ER+ metastatic BC patient-derived samples. The experiment in a line: ALDEFLUOR assay (ALDH enzymatic activity) in metastatic patient-derived cells. Format: cell-based, human. As to conditions: Tamoxifen 10^−6 M or Fulvestrant 10^−7 M, 7-9 days; seven out of nine patient samples. How it is done:
Metastatic samples (ascites or pleural effusions) were centrifuged at 1000 g for 10 minutes at 4° C. The cell pellets were diluted in PBS. Erythrocytes and leucocytes were removed using Lymphoprep (Axis-Shield) and CD45-negative magnetic sorting (Miltenyi Biotec), respectively. Cells were cultured in adherence for 7-9 days in DMEM/F-12 medium, GlutaMAX (Gibco) with 10% FBS (Gibco), 10 μg/ml insulin (Sigma), 10 μg/ml hydrocortisone (Sigma) and 5 ng/ml epidermal growth factor (EGF, Sigma), in 10^−6M 4-OH-tamoxifen (Sigma, H7904), 10^−7M fulvestrant (ICI 182780, TOCRIS, 1047) or ethanol (control).
Dissociated single cells were suspended in Aldefluor assay buffer containing an ALDH substrate, bodipyaminoacetaldehyde (BAAA) at […], and incubated for 45 min at 37° C. To distinguish between ALDH-positive and -negative cells, a fraction of cells was incubated under identical conditions in the presence of a 2-fold molar excess of the ALDH inhibitor, diethylaminobenzaldehyde (DEAB). Mouse cells were excluded from the FACS analysis with anti-mouse MHC Class I (H-2Kd) antibody conjugated with Pacific Blue (BioLegend, 116616). 7-aminoactinomycin D (7AAD, BD) was added for dead cell exclusion. Data were acquired on a LSR II (BD) flow cytometer and analysed using the BD FACSDiva™ software.

Experiment [2] concerns Notch target genes HEY1 and HES1. The experiment in a line: HEY1 and HES1 expression in ER+ cell lines (real-time PCR, Western Blot). Format: cell-based, human. To be noted: for expression of HEY1 and HES1: MCF-7, T47D, ZR-75-1, 6 days, in the ALDH+ subpopulation. How it is done: MCF7, T47D and ZR-75-1 cell lines were purchased from American Tissue Culture Collection (ATCC) and cultured in DMEM/F-12, GlutaMAX (Gibco) with 10% FBS (Gibco). Cells were treated for 3 days or 6 days with ethanol (control), 10^-6M 4-OH-tamoxifen or 10^−7M fulvestrant and/or with 10 μM of gamma-secretase inhibitor RO4929097 (Cellagen Technology) or DMSO (control).
Total RNA was extracted using the RNeasy Plus Mini Kit (QIAGEN, 74104) and the concentration and purity determined using an ND-1000 spectrophotometer (NanoDrop Technologies). Reverse transcription of 1 μg of RNA was performed with Oligo(dT) using the TaqMan Reverse Transcription Reagents from Applied Biosystems (N8080234). Samples were incubated on a thermal cycler (MJ Research) for 10 minutes at 25° C., 30 minutes at 48° C. and 5 minutes at 95° C. Quantitative real-time PCR reactions were set up in triplicate in 384-well plates and performed on the 7900 PCR machine (Applied Biosystems) using TaqMan® Universal PCR Master Mix (Applied Biosystems) and probes from Universal Probe Library (Roche). Conditions used for amplification of cDNA fragments were as follows: 95° C. for 5 min, 40 cycles of amplification-95 C for 15 sec, 60 C for 1 min. The expression levels were calculated using the ΔΔCt method and normalised to the housekeeping genes 36B4 and GAPDH. The sequences of the primers and probes used can be found in the table below.
Proteins were extracted with Protein Lysis Buffer (25 mM HEPES, 50 mM NaCl, 30 mM NaPP, 50 mM NaF, 1% Triton-X-100, 10% Glycerol, 5 mM EDTA, Protease Inhibitor cocktail, 1 μM PMSF). Lysates were placed on a rotator for 1 hour at 4° C., then were centrifuged at 10000 g at 4° C. for 10 min, and supernatants were collected. Protein concentrations were assessed using the BCA Protein Assay Kit (Thermo Scientific, 23225). Proteins were separated on a 10% gel (Biorad, 456-1033) by SDS-PAGE at 200V for 1 hour, and then were transferred on polyvinylidene difluoride (PVDF) membranes (BioRad, 170-4157) at 25 V/1,300 mA for 15 min using a Trans Blot Turbo (BioRad, 170-4155). […]
For orientation: Real-time PCR tracks product formation cycle by cycle.

Another experiment concerns NOTCH4-ICD and JAG1. The experiment in a line: NOTCH4-ICD and JAG1 Western Blot in PDX treated in vivo. To be noted: 14 day window treatment of PDXs in vivo. Also noted: species or system mice. How it is done:
Tamoxifen citrate (Sigma, T9262, 10 mg/kg/day) and RO4929097 (Cellagen Technology, 3 mg/kg/day) were administered by oral gavage (0.1 ml/dose) on a five day from seven basis (weekends excluded) for fourteen days. Tamoxifen citrate and RO4929097 were prepared in 1% carboxymethylcellulose (Sigma, C9481) dissolved in distilled water. Fulvestrant (kindly provided by Astrazeneca, 200 mg/kg/week) was administered by subcutaneous injection (0.1 ml/dose) on a weekly basis for fourteen days. The HBC×22 and HBC×34 tamoxifen-resistant PDXs have been established by our collaborators in the Curie Institute (Cottu el al, 2014) and were treated for fourteen days in the presence or absence of the gamma-secretase inhibitor RO4929097 (10 mg/kg/day, oral gavage). Xenografts were collected in ice cold DMEM media for live cell assays, histological analysis and RNA and protein extraction. Patient-derived xenograft single cell suspension was obtained using a collagenase-hyaluronidase mixture for digestion (Stem Cell Technologies).
Proteins were extracted with Protein Lysis Buffer (25 mM HEPES, 50 mM NaCl, 30 mM NaPP, 50 mM NaF, 1% Triton-X-100, 10% Glycerol, 5 mM EDTA, Protease Inhibitor cocktail, 1 μM PMSF). […] Protein concentrations were assessed using the BCA Protein Assay Kit (Thermo Scientific, 23225). […]
(In general: In western blotting, separated proteins are transferred to a membrane and probed.)

Molecules are shown by their SMILES.

As to `CC/C(=C(\c1ccccc1)c1ccc(OCCN(C)C)cc1)c1ccccc1` [tamoxifen, (Z)-2-[4-(1,2-diphenylbut-1-enyl)phenoxy]-N,N-dimethylethanamine], in the experiment on MCF-7 cells, the “in vivo tumor initiation capacity” value is on record as “enriched” and the “enrichment in tumor-initiating cell frequency (ELDA)” value stood at 11 fold. Besides, the ALDH enzymatic activity entry in experiment [1] is given as “significant increase”. The “expression of HEY1 and HES1” value in experiment [2] is given as “preferentially increased”. Also, the “NOTCH4-ICD and JAG1 protein expression” value with NOTCH4-ICD and JAG1 is “up-regulated”.
For `CC(C)(C(=O)NCC(F)(F)C(F)(F)F)C(=O)N[C@@H]1C(=O)Nc2ccccc2-c2ccccc21` [RO4929097], in the experiment with MCF-7 cells (co-treatment with RO4929097 10 μM), the “enrichment in tumor-initiating cell frequency following tamoxifen or fulvestrant pre-treatment” value is recorded as “reversed”. In addition, the “HEY1 and HES1 mRNA and protein levels” value in experiment [2] (MCF-7 cells pre-treated six days with RO4929097 10 μM) was “decreased”.
As to `C[C@]12CC[C@@H]3c4ccc(O)cc4C[C@@H](CCCCCCCCC[S+]([O-])CCCC(F)(F)C(F)(F)F)[C@H]3[C@@H]1CC[C@@H]2O` (stereo partly drawn) [fulvestrant], in the experiment on MCF-7 cells, the “in vivo tumor initiation capacity” value was “enriched” and the “enrichment in tumor-initiating cell frequency (ELDA)” value came to 11 fold. In addition, in experiment [1], the ALDH enzymatic activity entry is reported as “significant increase”. Moreover, the “expression of HEY1 and HES1” value in experiment [2] was “preferentially increased”. For the same compound, the “NOTCH4-ICD and JAG1 protein expression” value in the experiment on NOTCH4-ICD and JAG1 was “up-regulated”.

Values taken from patent US20160376659A1, “Breast Cancer Biomarker” (The University of Manchester, priority 2015, published 2016).
